Data from ChEMBL document CHEMBL1201862, “PubChem BioAssay data set” (2004).
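Step 1: Grow cells in 96-well plates. Step 2: Expose to compound for 48 hours at 5 concentrations. Step 3: Interpolate endpoints linearly; if unreached, use highest concentration. GI50 is the concentration that inhibits growth by half.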 Active and inactive are the calls of the source. Rule as the data show it: active = GI50 up to about 1.1 µM and inactive = higher.

Experiments:
Assay in all cases: DTP human tumour cell line panel, 48 h
SK-MEL-2 = test system: SK-MEL-2
HCT-15 = test system: HCT-15
NCI-H226 = test system: NCI-H226
OVCAR-3 = test system: OVCAR-3
A549 = test system: A549
SNB-78 = test system: SNB-78
SK-MEL-28 = test system: SK-MEL-28
DMS-273 = test system: DMS-273
A498 = test system: A498
SF-295 = test system: SF-295
UACC-257 = test system: UACC-257
DLD-1 = test system: DLD-1
NCI-H522 = test system: NCI-H522
SN12C = test system: SN12C
HCC 2998 = test system: HCC 2998
U-251 = test system: U-251
M14 = test system: M14

Row | SMILES | GI50 (SK-MEL-2) | GI50 (HCT-15) [µM] | GI50 (NCI-H226) | GI50 (OVCAR-3) | GI50 (A549) | GI50 (SNB-78) | GI50 (SK-MEL-28) | GI50 (DMS-273) | GI50 (A498) | GI50 (SF-295) | GI50 (UACC-257) | GI50 (DLD-1) | GI50 (NCI-H522) | GI50 (SN12C) | GI50 (HCC 2998) | GI50 (U-251) | GI50 (M14)
1 | CCOC(=O)C12C(C(=O)OC)=C(C)N(NC(=O)Nc3ccccc3)C1(N)N(NC(=O)Nc1ccccc1)C(C)=C2C(=O)OC (stereo not given) | 19.9 µM (inactive) | 35.2 | > 100 µM (inactive) | 22.9 µM (inactive) | 44.6 µM (inactive) | 47.4 µM (inactive) | 34.1 µM (inactive) | 27.7 µM (inactive) | 30.1 µM (inactive) | 26.1 µM (inactive) | 21.1 µM (inactive) | 41.5 µM (inactive) | 20.9 µM (inactive) | > 61.5 µM (inactive) | 25.2 µM (inactive) | 17.7 µM (inactive) | 21.2 µM (inactive)
2 | CC(=O)OCC1(C)C(OC(C)=O)CCC2(C)C(CC(OC(C)=O)C3=CCOC3=O)C(O)(CO)CCC12 (stereo not given) | – | – | > 100 µM (inactive) | > 100 µM (inactive) | > 100 µM (inactive) | > 100 µM (inactive) | > 100 µM (inactive) | > 100 µM (inactive) | > 100 µM (inactive) | > 100 µM (inactive) | > 100 µM (inactive) | > 100 µM (inactive) | > 100 µM (inactive) | > 100 µM (inactive) | > 100 µM (inactive) | > 100 µM (inactive) | > 100 µM (inactive)
3 | CSC(=S)c1ccc(C(=S)SC)cc1 | – | > 100 | > 100 µM (inactive) | > 100 µM (inactive) | > 100 µM (inactive) | > 100 µM (inactive) | – | > 100 µM (inactive) | > 100 µM (inactive) | > 100 µM (inactive) | > 100 µM (inactive) | > 100 µM (inactive) | > 100 µM (inactive) | > 100 µM (inactive) | > 100 µM (inactive) | > 100 µM (inactive) | > 100 µM (inactive)
4 | O=C1c2ccccc2C(=O)N1/N=C\c1ccc(Br)cc1 | > 10 µM (inactive) | > 10 | > 10 µM (inactive) | > 10 µM (inactive) | > 10 µM (inactive) | > 10 µM (inactive) | > 10 µM (inactive) | > 10 µM (inactive) | > 10 µM (inactive) | > 10 µM (inactive) | > 10 µM (inactive) | > 10 µM (inactive) | > 100 µM (inactive) | > 10 µM (inactive) | > 10 µM (inactive) | > 100 µM (inactive) | > 10 µM (inactive)
5 | O=C(NCC(O)CNC(=O)C(F)(F)F)C(F)(F)F | – | > 100 | > 100 µM (inactive) | > 100 µM (inactive) | > 100 µM (inactive) | > 100 µM (inactive) | – | > 100 µM (inactive) | > 100 µM (inactive) | > 100 µM (inactive) | > 100 µM (inactive) | > 100 µM (inactive) | > 100 µM (inactive) | > 100 µM (inactive) | > 100 µM (inactive) | > 100 µM (inactive) | > 100 µM (inactive)
6 | CC(C)N(C(=O)C12C3C4C5(C#N)C3C1(I)C5C42I)C(C)C (stereo not given) | > 100 µM (inactive) | > 41.9 | > 100 µM (inactive) | > 100 µM (inactive) | > 100 µM (inactive) | 67.9 µM (inactive) | > 100 µM (inactive) | > 57.7 µM (inactive) | > 100 µM (inactive) | > 100 µM (inactive) | > 100 µM (inactive) | > 92.7 µM (inactive) | > 100 µM (inactive) | > 68.2 µM (inactive) | > 100 µM (inactive) | > 84.1 µM (inactive) | > 100 µM (inactive)
7 | CCCCn1c2ccccc2c2ccc3c(c21)C(=O)C=CC3=O | > 100 µM (inactive) | > 100 | > 100 µM (inactive) | > 100 µM (inactive) | > 100 µM (inactive) | > 100 µM (inactive) | > 100 µM (inactive) | > 100 µM (inactive) | > 100 µM (inactive) | > 100 µM (inactive) | > 100 µM (inactive) | > 100 µM (inactive) | > 100 µM (inactive) | > 100 µM (inactive) | > 100 µM (inactive) | > 100 µM (inactive) | > 100 µM (inactive)
8 | CCCOC(=O)C1CCC(=O)N1C(=O)C(Cl)Cl (stereo not given) | > 100 µM (inactive) | > 100 | > 100 µM (inactive) | > 100 µM (inactive) | > 100 µM (inactive) | > 100 µM (inactive) | > 100 µM (inactive) | > 100 µM (inactive) | > 100 µM (inactive) | > 100 µM (inactive) | > 100 µM (inactive) | > 100 µM (inactive) | > 100 µM (inactive) | > 100 µM (inactive) | > 100 µM (inactive) | > 100 µM (inactive) | > 100 µM (inactive)
9 | Cn1c(N)nc(=O)c2c1N(C1OC(CO)C(O)C1O)CN2Cc1ccccc1 (stereo not given) | > 100 µM (inactive) | > 100 | > 100 µM (inactive) | > 100 µM (inactive) | > 100 µM (inactive) | > 100 µM (inactive) | – | > 100 µM (inactive) | > 100 µM (inactive) | > 100 µM (inactive) | > 100 µM (inactive) | > 100 µM (inactive) | > 100 µM (inactive) | > 100 µM (inactive) | > 100 µM (inactive) | > 100 µM (inactive) | > 100 µM (inactive)
10 | Cc1ccccc1/C=N/C12CC3CC(CC(C3)C1)C2 | > 100 µM (inactive) | > 100 | > 100 µM (inactive) | > 100 µM (inactive) | > 100 µM (inactive) | > 100 µM (inactive) | > 100 µM (inactive) | > 100 µM (inactive) | > 100 µM (inactive) | 49.3 µM (inactive) | > 100 µM (inactive) | > 100 µM (inactive) | > 100 µM (inactive) | > 100 µM (inactive) | > 100 µM (inactive) | > 100 µM (inactive) | > 100 µM (inactive)
11 | Cc1cc(Cl)ccc1N1C(=O)C(=O)C(c2nc3ccccc3s2)/C(=N\NC(=O)c2ccccc2O)C1=O (stereo not given) | > 100 µM (inactive) | > 100 | > 100 µM (inactive) | > 100 µM (inactive) | > 100 µM (inactive) | > 100 µM (inactive) | > 100 µM (inactive) | > 100 µM (inactive) | > 100 µM (inactive) | > 100 µM (inactive) | > 100 µM (inactive) | > 100 µM (inactive) | > 100 µM (inactive) | > 100 µM (inactive) | > 100 µM (inactive) | > 100 µM (inactive) | > 100 µM (inactive)
12 | O=C1C[C@@H]2[C@@H](CCC23CC3)N1 | > 100 µM (inactive) | – | > 100 µM (inactive) | > 100 µM (inactive) | > 100 µM (inactive) | > 100 µM (inactive) | > 100 µM (inactive) | > 100 µM (inactive) | > 100 µM (inactive) | > 100 µM (inactive) | > 100 µM (inactive) | > 100 µM (inactive) | > 100 µM (inactive) | > 100 µM (inactive) | > 100 µM (inactive) | > 100 µM (inactive) | > 100 µM (inactive)
13 | N#CN=C(NCc1ccccc1)NCc1ccccc1 | > 100 µM (inactive) | > 40.3 | > 100 µM (inactive) | > 100 µM (inactive) | > 83 µM (inactive) | > 100 µM (inactive) | > 100 µM (inactive) | > 41.9 µM (inactive) | > 100 µM (inactive) | > 100 µM (inactive) | > 100 µM (inactive) | > 47.4 µM (inactive) | > 100 µM (inactive) | > 100 µM (inactive) | > 100 µM (inactive) | > 48.2 µM (inactive) | > 100 µM (inactive)
14 | C=CCn1c(=O)c(C(=O)NC(=O)OCC)cn(C2CCCCC2)c1=O | > 100 µM (inactive) | > 100 | > 100 µM (inactive) | > 100 µM (inactive) | > 100 µM (inactive) | > 100 µM (inactive) | > 100 µM (inactive) | > 100 µM (inactive) | > 100 µM (inactive) | > 100 µM (inactive) | > 100 µM (inactive) | > 100 µM (inactive) | – | > 100 µM (inactive) | > 100 µM (inactive) | > 100 µM (inactive) | > 100 µM (inactive)
15 | CCCCCCCCCCC(=O)CC(=O)c1c(O)cccc1O | – | 47.4 | 17.9 µM (inactive) | 24.2 µM (inactive) | 32.4 µM (inactive) | 33.5 µM (inactive) | 53.7 µM (inactive) | 23.8 µM (inactive) | 30.9 µM (inactive) | 36.6 µM (inactive) | 31.2 µM (inactive) | 44.6 µM (inactive) | 28.1 µM (inactive) | 29.3 µM (inactive) | 27.8 µM (inactive) | 21.5 µM (inactive) | 40.2 µM (inactive)
16 | COC(=O)C(C(=O)C(=O)Nc1ccc([N+](=O)[O-])cc1[N+](=O)[O-])c1nc2ccc(Cl)cc2nc1O (stereo not given) | > 100 µM (inactive) | > 100 | 79.1 µM (inactive) | 66.4 µM (inactive) | > 100 µM (inactive) | > 100 µM (inactive) | > 100 µM (inactive) | > 100 µM (inactive) | 44.2 µM (inactive) | > 100 µM (inactive) | > 100 µM (inactive) | > 100 µM (inactive) | – | > 100 µM (inactive) | > 100 µM (inactive) | – | > 100 µM (inactive)
